Like-named read-outs stand apart in the source and are kept apart here.
Experiments:
[1] = test system: T. cruzi (Tulahuen strain); assay: In vitro anti-T. cruzi evaluation in an intracellular model (trypomastigote and amastigote forms, L929 host cells, β-galactosidase readout); format: cell-based, Trypanosoma cruzi; settings: for IC50: Trypanosoma cruzi, TULAHUEN, L929, 96 h, read-out: IC50 T. cruzi; for SI: selectivity index, L929 cells vs T. cruzi
Description: Derivatives 5–10 were evaluated in vitro against T. cruzi in an intracellular model on the trypomastigote and amastigote forms of the parasite of the Tulahuen strain [20]. This model is interesting because it mimics the life cycle of the parasite, as both clinically relevant forms are present in the environment. The mammalian host cells used were fibroblasts from L929 mice.
This assay was performed as previously described by Buckner et al. (1996) using T. cruzi (Tulahuen strain), which expresses the β-galactosidase gene of Escherichia coli. Infectious trypomastigote forms were obtained by culturing fibroblast monolayers of L929 mice in RPMI-1640 medium (pH 7.2–7.4) without phenol red (Gibco BRL), containing 10% fetal bovine serum and 2 mM glutamine. For the bioassay, 4000 L929 cells in 80 µL of supplemented medium were added to each well of a 96-well microtiter plate. After overnight incubation, 40,000 trypomastigotes in 20 µL were added to the cells and incubated for 2 h. […] The medium was then replaced with compound solutions at 1.0 µg/mL in fresh medium (200 µL), and the plate was incubated for 96 h at 37 °C. After this period, 50 µL of chlorophenol D-galactopyranoside red (500 µM) in 0.5% Nonidet P40 was added to each well, and the plate was incubated for 18 h at 37 °C. After this, the absorbance was measured at 570 nm. Controls with uninfected cells and infected cells treated with benznidazole were performed in parallel. The results are expressed as the percentage of T. cruzi growth inhibition in cells tested with compost compared to infected and untreated cells. The tests were performed in triplicate.

[2] = test system: T. cruzi nitroreductase enzyme (TcNTR); assay: Kinetic assay with Trypanosoma cruzi nitroreductase enzyme (NADH oxidation); format: biochemical; settings: for Kobs Deriv./Kobs BZN 25 µM: 25 µM derivative; for Kobs Deriv./Kobs BZN 25 µM / Kobs Deriv./Kobs BZN 50 µM: ratio of mean Kobs to BZN; for Kobs Deriv./Kobs BZN 50 µM: 50 µM derivative
Description: To determine a potential mechanism of action, nitroazole derivatives 5, 6, 8 and 9 were evaluated as substrates of the T. cruzi nitroreductase enzyme (TcNTR) and compared to BZN, the reference prodrug (Table 2). The enzymatic activity was measured by monitoring the oxidation of NADH, the first substrate of the enzyme, via spectrophotometric assays. […] At a concentration of 25 µM, derivatives 5 and 8 were metabolized at rates 2.3 and 2.6 times higher than that of BZN, respectively. At 50 µM, the compounds presented metabolism rates 1.6 and 3.0 times higher than that of BZN, respectively.
The protocols for expressing, purifying and conducting kinetic analysis with the recombinant TcNTR enzyme were adapted from the methods originally developed by Shane Wilkinson, with certain modifications.
For the kinetics assays, it was prepared a 200 μL solution which included 50 mM Tris-Base at pH 7.5, with a constant concentration of both NADH (50 μM) and the substances 5, 6, 8, 9 or BZN. Specifically, two distinct fixed concentrations (25 and 50 μM) of the substances 5, 6, 8, 9 or BZN were tested. These prepared mixtures were then incubated for 5 min at room temperature. Subsequently, the reaction was initiated by adding NTR to achieve a final concentration of 10 μg/mL. The reaction rates were monitored using a Hitachi U-2900 spectrophotometer, measuring the consumption of the primary substrate, NADH (λ = 340 nm; ε = 6.220 M^−1 cm^−1), over a 2-min interval. The resulting data curves were analyzed through linear regression using OriginPro 2016 software. To evaluate the reaction rate (Kobs) obtained from the 25 and 50 μM concentrations of each substrate, comparisons were made with the reference values for BZN. Measurement errors were calculated using the formula: Error = Z × σ/√n, where ‘Z’ denotes the critical value, ‘σ’ represents the standard deviation and ‘n’ is the number of test measurements, which were performed at least in triplicate.

S. typhimurium TA98 = assay: Salmonella reverse mutation assay (Ames test, preincubation), TA98
Description: The compounds were tested in a reverse mutation assay preincubation protocol in the absence and presence of metabolic activation following standard protocols previously proposed by Maron and Ames. The histidine-dependent (his^−) strains TA98 and TA100 of Salmonella typhimurium were inoculated in 10 mL of Oxoid nutrient broth No. 2 containing 25 µg/mL ampicillin and incubated overnight (15–18 h) at 37 ± 1 °C on an orbital shaker (CT-712, Cientec, Belo Horizonte, MG, Brazil) at 150 rpm, obtaining a concentration of 1–2 × 10^9 cells/mL, confirmed by titration in nutrient agar plates. Briefly, 100 µL of stationary growth cultures of each strain were preincubated for 20 min on an orbital shaker (150 rpm) at 37 ± 1 °C, with 500 µL of 0.2 M phosphate buffer pH 7.4, or 500 µL of S9 mix 4% (Molecular Toxicology, Baltimore, MD, USA), and 100 µL of compound dilutions (0–5000 µM) or controls. DMSO 1% was used as a negative control. […] After incubation, 2 mL of top agar (0.7% agar, 0.5% NaCl, 0.05 mM L-histidine and D-biotin) at 45 ± 3 °C was added and gently mixed. The final mixture was poured on glucose minimal agar plates (1.5% agar, 10 g/L MgSO4·7H2O; 100 g/L of C6H8O7·H2O; 500 g/L K2HPO4; 175 g/L Na(NH4)HPO4·4H2O, 2% glucose) and incubated for 72 h at 37 ± 1 °C. The results were expressed as the mean of revertant colonies (His^+) per plate, standard deviation (SD) and mutagenicity induction fold (IF), calculated as the ratio between the number of colonies in the test group and the number of colonies in the negative control group. Mutagenic potency was calculated as the slope of the linear portion of the concentration–response function and expressed as revertants/µM. All assays were performed in triplicate and repeated at least two times. Statistical analyses were carried out in GraphPad Prism software (version 5.00, GraphPad Software, Boston, MA, USA).

[3] = Tulahuen strain, intracellular trypomastigote and amastigote forms in L929 fibroblasts, 96 h

Row | Compound | SI [1] | IF (induction factor) (S. typhimurium TA98; TA98, +S9, 0.5 µM) | revertant His+ colonies, mean ± SD (S. typhimurium TA98; TA98, +S9, 0.5 µM) | IF (induction factor) (S. typhimurium TA98; TA98, +S9, 5 µM) | revertant His+ colonies, mean ± SD (S. typhimurium TA98; TA98, +S9, 5 µM) | IF (induction factor) (S. typhimurium TA98; TA98, +S9, 50 µM) | revertant His+ colonies, mean ± SD (S. typhimurium TA98; TA98, +S9, 50 µM) | IF (induction factor) (S. typhimurium TA98; TA98, +S9, 500 µM) | revertant His+ colonies, mean ± SD (S. typhimurium TA98; TA98, +S9, 500 µM) | IF (induction factor) (S. typhimurium TA98; TA98, +S9, 5000 µM) | revertant His+ colonies, mean ± SD (S. typhimurium TA98; TA98, +S9, 5000 µM) | IF (induction factor) (S. typhimurium TA98; TA98, −S9, 0.5 µM) | revertant His+ colonies, mean ± SD (S. typhimurium TA98; TA98, −S9, 0.5 µM) | IF (induction factor) (S. typhimurium TA98; TA98, −S9, 5 µM) | revertant His+ colonies, mean ± SD (S. typhimurium TA98; TA98, −S9, 5 µM) | IF (induction factor) (S. typhimurium TA98; TA98, −S9, 50 µM) | revertant His+ colonies, mean ± SD (S. typhimurium TA98; TA98, −S9, 50 µM) | IF (induction factor) (S. typhimurium TA98; TA98, −S9, 500 µM) | revertant His+ colonies, mean ± SD (S. typhimurium TA98; TA98, −S9, 500 µM) | IF (induction factor) (S. typhimurium TA98; TA98, −S9, 5000 µM) | further results
1 | O=C(Cn1ccnc1[N+](=O)[O-])NCc1ccccc1 [BZN, benznidazole, reference compound] | 1409 | 0.9 | 21 ± 2 | 0.9 | 17 ± 2 | 0.7 | 18 ± 1 | 1.3 | 31 ± 6 | 1.4 | 33 ± 4 | 1.1 | 28 ± 6 | 1.1 | 28 ± 4 | 1.1 | 28 ± 2 | 1.4 | 37 ± 5 | 2.5 | IC50 [1]: 1500 ± 400 nM; Kobs ([2]; 25 µM Derivative + 50 µM NADH): 0.36 µmol of oxidized NADH/min/mg TcNTR; Kobs ([2]; 50 µM Derivative + 50 µM NADH): 0.36 µmol of oxidized NADH/min/mg TcNTR; revertant His+ colonies, mean ± SD (S. typhimurium TA98; TA98, −S9, 5000 µM): 67 ± 4
2 | O=[N+]([O-])c1nccn1CC(O)c1ccc(F)cc1F (stereo not shown) [Compound 9, 1-(2,4-Difluorophenyl)-2-(2-nitro-1H-imidazol-1-yl)ethanol] | >131 | 0.8 | 18 ± 2 | 0.8 | 18 ± 2 | 0.9 | 22 ± 8 | 1.0 | 24 ± 5 | 1.2 | 28 ± 2 | 0.7 | 18 ± 6 | 0.7 | 18 ± 2 | 1.1 | 29 ± 3 | 1.8 | 49 ± 5 | 6.5 | IC50 [1, 3]: 3050 ± 70 nM; times more potent against T. cruzi than 6 ([1]; ratio of IC50 T. cruzi to 2-nitroimidazole ketone 6): approximately 30; Kobs Deriv./Kobs BZN 25 µM [2]: 0.8; consumption rate by TcNTR, times higher than that of 6 ([2]; 50 µM): 4.9; Kobs Deriv./Kobs BZN 50 µM [2]: 1.2; revertant His+ colonies, mean ± SD (S. typhimurium TA98; TA98, −S9, 5000 µM): 173 ± 21
3 | O=[N+]([O-])c1ncn(CC(O)c2ccc(F)cc2F)n1 (stereo not shown) [Compound 8, 1-(2,4-Difluorophenyl)-2-(3-nitro-1H-1,2,4-triazol-1-yl)ethanol] | 3077 | 1.0 | 24 ± 2 | 1.0 | 24 ± 7 | 1.0 | 23 ± 3 | 1.0 | 24 ± 5 | 1.1 | 26 ± 1 | 0.9 | 23 ± 4 | 0.9 | 23 ± 1 | 1.1 | 30 ± 3 | – | Cytotoxic | – | IC50 [1, 3]: 390 ± 10 nM; times more potent against T. cruzi than 9 ([1]; ratio of IC50 T. cruzi to 2-nitroimidazole 9): approximately 8; fold more potent against T. cruzi than BZN ([1]; ratio of IC50 T. cruzi to BZN): ~4; times more potent against T. cruzi than 5 ([1]; ratio of IC50 T. cruzi to carbonyl counterpart 5): more than 4; times more potent against T. cruzi than 10 ([1]; ratio of IC50 T. cruzi to triazole 10): more than 300; fold more selective than BZN ([1]; ratio of selectivity index to BZN): 2; consumption rate by TcNTR, times higher than that of 9 ([2]; 25 µM): 3.4; Kobs Deriv./Kobs BZN 25 µM [2]: 2.6; consumption rate by TcNTR, times higher than that of 5 ([2]; 50 µM): 1.8; Kobs Deriv./Kobs BZN 50 µM [2]: 3.0; Mutagenicity in the Ames test (verdict) (S. typhimurium TA98; TA98, absence or presence of metabolic activation): not mutagenic

From paper PMC10672842, “Anti-Trypanosoma cruzi Activity, Mutagenicity, Hepatocytotoxicity and Nitroreductase Enzyme Evaluation of 3-Nitrotriazole, 2-Nitroimidazole and Triazole Derivatives” (Molecules, 2023)
